Reference: patent US20250163104A1, “MACROCYCLIC IMMUNOMODULATORS” (priority 2021, published 2025)
Where a SMILES comes first, the peptide text is derived from it. Bridges are numbered along the chain shown (N, C = ends). [ ]: non-standard residue; d: D form. The star is where a group is joined. Phe(3-Ph) = N[C@@H](Cc1cccc(-c2ccccc2)c1)C(=O)O; Phe(4-COOH) = N[C@@H](Cc1ccc(C(=O)O)cc1)C(=O)O; Bip = N[C@@H](Cc1ccc(-c2ccccc2)cc1)C(=O)O; Phe(3-Me) = Cc1cccc(C[C@H](N)C(=O)O)c1; aIle = CC[C@@H](C)[C@H](N)C(=O)O; 3Pal = N[C@@H](Cc1cccnc1)C(=O)O; 4Pal = N[C@@H](Cc1ccncc1)C(=O)O; Cit = NC(=O)NCCC[C@H](N)C(=O)O; Carboxymethyl = O=C(O)C*; Orn = NCCC[C@H](N)C(=O)O; Dab = NCC[C@H](N)C(=O)O; Dap = NC[C@H](N)C(=O)O

Target: T1, human PD-1 / PD-L1-Ig binding on Jurkat cell line over-expressing human PD-1 (Jurkat-PD-1) (Homo sapiens, UniProt Q15116)
T1 construct: expressed in transfected cells; host or cells: Jurkat
Assay: Jurkat-PD-1 Cell Binding High-Content Screening Assay (CBA)
Assay type: cell-based
Conditions: Jurkat HPD1_PDL1 IC50, Jurkat-PD-1 cells, PE-labeled PD-L1-Ig 20 nM final
Procedure, shortened: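 Cell-bound PE-labeled PD-L1-Ig (20 nM final, 1 h) measured by high-content imaging after fixation and Hoechst 33342 counterstain. Compound was applied first for 2 h at 37° C. to Jurkat cells over-expressing human PD-1 in DMEM with 10% FCS.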

T1 sequence (Q15116 25-288): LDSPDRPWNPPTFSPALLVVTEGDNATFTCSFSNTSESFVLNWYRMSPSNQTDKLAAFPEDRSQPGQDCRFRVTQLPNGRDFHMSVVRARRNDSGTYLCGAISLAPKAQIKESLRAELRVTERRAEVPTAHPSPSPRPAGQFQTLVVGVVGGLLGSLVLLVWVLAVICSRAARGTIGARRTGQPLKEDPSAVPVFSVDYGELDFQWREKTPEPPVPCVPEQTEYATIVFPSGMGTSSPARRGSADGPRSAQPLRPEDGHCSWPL

**Q.** With `CC(C)C[C@H]1NC(=O)[C@H](CCCN)NC(=O)[C@H](CCCNC(N)=O)NC(=O)[C@H](Cc2ccc(-c3ccccc3)cc2)NC(=O)[C@H](C(C)C)NC(=O)[C@H](Cc2c[nH]c3ccccc23)NC(=O)[C@H](CC(=O)O)NC(=O)[C@H](Cc2ccc(C(=O)O)cc2)NC(=O)[C@H](Cc2ccc(OCC(=O)O)cc2)NC(=O)CSC[C@@H](C(=O)N[C@@H](C)C(N)=O)NC(=O)[C@H]([C@@H](C)O)NC(=O)[C@H](C(C)C)NC(=O)[C@H](Cc2ccccc2)NC(=O)[C@H](CCN)NC1=O` [Compound 1664] ({CH2CO}-Y(Carboxymethyl)[Phe(4-COOH)]DWV[Bip][Cit][Orn][dL][Dab]FVTCA-NH2; thioether N-14) as the compound, how does the IC50 read?
**A.** Its IC50 is 36.3 nM.

Same assay, conditions: Jurkat-PD-1 cells, PE-labeled PD-L1-Ig 20 nM final; read-out: Jurkat HPD1_PDL1 IC50

**Q.** For `Cc1cccc(C[C@@H]2NC(=O)[C@H](CC(=O)O)NC(=O)[C@H](Cc3ccncc3)NC(=O)[C@H](CN)NC(=O)CSC[C@@H](C(N)=O)NC(=O)[C@H]([C@@H](C)O)NC(=O)[C@H](C(C)C)NC(=O)[C@H](CC(C)C)NC(=O)[C@H](CCN)NC(=O)[C@@H](CC(C)C)NC(=O)[C@H](CCCN)NC(=O)[C@H](CCCNC(N)=O)NC(=O)[C@H](Cc3cccc(-c4ccccc4)c3)NC(=O)[C@H](C(C)C)NC2=O)c1` [Compound 1654] ({CH2CO}-[Dap][4Pal]D[Phe(3-Me)]V[Phe(3-Ph)][Cit][Orn][dL][Dab]LVTC-NH2; thioether N-14), which IC50 is on record?
**A.** Its IC50 is 124 nM.

**Q.** How did the IC50 turn out when `Cc1cccc(C[C@@H]2NC(=O)[C@H](CC(=O)O)NC(=O)[C@H](Cc3ccc(OCC(=O)O)cc3)NC(=O)[C@H](Cc3cccnc3)NC(=O)CSC[C@@H](C(N)=O)NC(=O)[C@H]([C@@H](C)O)NC(=O)[C@H](C(C)C)NC(=O)[C@H](CC(C)C)NC(=O)[C@H](CCN)NC(=O)[C@@H](CC(C)C)NC(=O)[C@H](CCCN)NC(=O)[C@H](CCCNC(N)=O)NC(=O)[C@H](Cc3ccc(-c4ccccc4)cc3)NC(=O)[C@H](C(C)C)NC2=O)c1` [Compound 1655] ({CH2CO}-[3Pal]Y(Carboxymethyl)D[Phe(3-Me)]V[Bip][Cit][Orn][dL][Dab]LVTC-NH2; thioether N-14) was run?
**A.** Its IC50 is 280 nM.

**Q.** With `Cc1cccc(C[C@@H]2NC(=O)[C@H](CC(=O)O)NC(=O)[C@H](Cc3ccc(OCC(=O)O)cc3)NC(=O)[C@H](Cc3ccc(OCC(=O)O)cc3)NC(=O)CSC[C@@H](C(N)=O)NC(=O)[C@H](CO)NC(=O)[C@H](C(C)C)NC(=O)[C@H](CC(C)C)NC(=O)[C@H](CCN)NC(=O)[C@@H](CC(C)C)NC(=O)[C@H](CCCN)NC(=O)[C@H](CCCNC(N)=O)NC(=O)[C@H](Cc3ccc(-c4ccccc4)cc3)NC(=O)[C@H](CC(C)C)NC2=O)c1` [Compound 1656] ({CH2CO}-Y(Carboxymethyl)Y(Carboxymethyl)D[Phe(3-Me)]L[Bip][Cit][Orn][dL][Dab]LVSC-NH2; thioether N-14) as the compound, how does the IC50 read?
**A.** The IC50 was 36.4 nM.

**Q.** For `CC[C@@H](C)[C@@H]1NC(=O)[C@H](Cc2ccc(-c3ccccc3)cc2)NC(=O)[C@H](C(C)C)NC(=O)[C@H](Cc2cccc(C)c2)NC(=O)[C@H](CC(=O)O)NC(=O)[C@H](Cc2ccc(O)cc2)NC(=O)[C@H](CC(N)=O)NC(=O)CSC[C@@H](C(N)=O)NC(=O)[C@H]([C@@H](C)O)NC(=O)[C@H](C(C)C)NC(=O)[C@H](CC(C)C)NC(=O)[C@H](CCN)NC(=O)[C@@H](CC(C)C)NC(=O)[C@H](CCCN)NC1=O` [Compound 1657] ({CH2CO}-NYD[Phe(3-Me)]V[Bip][aIle][Orn][dL][Dab]LVTC-NH2; thioether N-14), which IC50 is on record?
**A.** The IC50 was 59.9 nM.

**Q.** For `CC[C@H](C)[C@@H]1NC(=O)[C@H](Cc2ccc(-c3ccccc3)cc2)NC(=O)[C@H](C(C)C)NC(=O)[C@H](Cc2c[nH]c3ccccc23)NC(=O)[C@H](CC(=O)O)NC(=O)[C@H](Cc2ccc(OCC(=O)O)cc2)NC(=O)[C@H](CN)NC(=O)CSC[C@@H](C(=O)N[C@@H](C)C(N)=O)NC(=O)[C@H]([C@@H](C)O)NC(=O)[C@H](C(C)C)NC(=O)[C@H](Cc2ccccc2)NC(=O)[C@H](CCN)NC(=O)[C@@H](CC(C)C)NC(=O)[C@H](CCCN)NC1=O` [Compound 1658] ({CH2CO}-[Dap]Y(Carboxymethyl)DWV[Bip]I[Orn][dL][Dab]FVTCA-NH2; thioether N-14), which IC50 is on record?
**A.** The IC50 was 19.5 nM.

**Q.** With `CC[C@H](C)[C@@H]1NC(=O)[C@H](Cc2ccc(-c3ccccc3)cc2)NC(=O)[C@H](C(C)C)NC(=O)[C@H](Cc2c[nH]c3ccccc23)NC(=O)[C@H](CC(=O)O)NC(=O)[C@H](Cc2ccc(C(=O)O)cc2)NC(=O)[C@H](Cc2ccc(OCC(=O)O)cc2)NC(=O)CSC[C@@H](C(=O)N[C@@H](C)C(N)=O)NC(=O)[C@H]([C@@H](C)O)NC(=O)[C@H](C(C)C)NC(=O)[C@H](Cc2ccccc2)NC(=O)[C@H](CCN)NC(=O)[C@@H](CC(C)C)NC(=O)[C@H](CCCN)NC1=O` [Compound 1659] ({CH2CO}-Y(Carboxymethyl)[Phe(4-COOH)]DWV[Bip]I[Orn][dL][Dab]FVTCA-NH2; thioether N-14) as the compound, how does the IC50 read?
**A.** The IC50 was 9.1 nM.

**Q.** For `CC[C@H](C)[C@@H]1NC(=O)[C@H](Cc2ccc(-c3ccccc3)cc2)NC(=O)[C@H](C(C)C)NC(=O)[C@H](Cc2c[nH]c3ccccc23)NC(=O)[C@H](CC(=O)O)NC(=O)[C@H](Cc2ccc(OCC(=O)O)cc2)NC(=O)[C@H](Cc2ccc(OCC(=O)O)cc2)NC(=O)CSC[C@@H](C(=O)N[C@@H](C)C(N)=O)NC(=O)[C@H]([C@@H](C)O)NC(=O)[C@H](C(C)C)NC(=O)[C@H](Cc2ccccc2)NC(=O)[C@H](CCN)NC(=O)[C@@H](CC(C)C)NC(=O)[C@H](CCCN)NC1=O` [Compound 1660] ({CH2CO}-Y(Carboxymethyl)Y(Carboxymethyl)DWV[Bip]I[Orn][dL][Dab]FVTCA-NH2; thioether N-14), which IC50 is on record?
**A.** The IC50 was 20.6 nM.

**Q.** With `CC(C)C[C@H]1NC(=O)[C@H](CCCN)NC(=O)[C@H](C(C)C)NC(=O)[C@H](Cc2ccc(-c3ccccc3)cc2)NC(=O)[C@H](C(C)C)NC(=O)[C@H](Cc2c[nH]c3ccccc23)NC(=O)[C@H](CC(=O)O)NC(=O)[C@H](Cc2ccc(OCC(=O)O)cc2)NC(=O)[C@H](CN)NC(=O)CSC[C@@H](C(=O)N[C@@H](C)C(N)=O)NC(=O)[C@H]([C@@H](C)O)NC(=O)[C@H](C(C)C)NC(=O)[C@H](Cc2ccccc2)NC(=O)[C@H](CCN)NC1=O` [Compound 1661] ({CH2CO}-[Dap]Y(Carboxymethyl)DWV[Bip]V[Orn][dL][Dab]FVTCA-NH2; thioether N-14) as the compound, how does the IC50 read?
**A.** The IC50 was 17 nM.

**Q.** `CC(C)C[C@H]1NC(=O)[C@H](CCCN)NC(=O)[C@H](C(C)C)NC(=O)[C@H](Cc2ccc(-c3ccccc3)cc2)NC(=O)[C@H](C(C)C)NC(=O)[C@H](Cc2c[nH]c3ccccc23)NC(=O)[C@H](CC(=O)O)NC(=O)[C@H](Cc2ccc(C(=O)O)cc2)NC(=O)[C@H](Cc2ccc(OCC(=O)O)cc2)NC(=O)CSC[C@@H](C(=O)N[C@@H](C)C(N)=O)NC(=O)[C@H]([C@@H](C)O)NC(=O)[C@H](C(C)C)NC(=O)[C@H](Cc2ccccc2)NC(=O)[C@H](CCN)NC1=O` [Compound 1662] ({CH2CO}-Y(Carboxymethyl)[Phe(4-COOH)]DWV[Bip]V[Orn][dL][Dab]FVTCA-NH2; thioether N-14) was tested. Which IC50 did it give?
**A.** The IC50 was 27.4 nM.

**Q.** `CC(C)C[C@H]1NC(=O)[C@H](CCCN)NC(=O)[C@H](C(C)C)NC(=O)[C@H](Cc2ccc(-c3ccccc3)cc2)NC(=O)[C@H](C(C)C)NC(=O)[C@H](Cc2c[nH]c3ccccc23)NC(=O)[C@H](CC(=O)O)NC(=O)[C@H](Cc2ccc(OCC(=O)O)cc2)NC(=O)[C@H](Cc2ccc(OCC(=O)O)cc2)NC(=O)CSC[C@@H](C(=O)N[C@@H](C)C(N)=O)NC(=O)[C@H]([C@@H](C)O)NC(=O)[C@H](C(C)C)NC(=O)[C@H](Cc2ccccc2)NC(=O)[C@H](CCN)NC1=O` [Compound 1663] ({CH2CO}-Y(Carboxymethyl)Y(Carboxymethyl)DWV[Bip]V[Orn][dL][Dab]FVTCA-NH2; thioether N-14) was tested. Which IC50 did it give?
**A.** The IC50 was 11.1 nM.

**Q.** Which IC50 does the source give for `CC(C)C[C@H]1NC(=O)[C@H](CCCN)NC(=O)[C@H](CCCNC(N)=O)NC(=O)[C@H](Cc2ccc(-c3ccccc3)cc2)NC(=O)[C@H](C(C)C)NC(=O)[C@H](Cc2c[nH]c3ccccc23)NC(=O)[C@H](CC(=O)O)NC(=O)[C@H](Cc2ccc(OCC(=O)O)cc2)NC(=O)[C@H](Cc2ccc(OCC(=O)O)cc2)NC(=O)CSC[C@@H](C(=O)N[C@@H](C)C(N)=O)NC(=O)[C@H]([C@@H](C)O)NC(=O)[C@H](C(C)C)NC(=O)[C@H](Cc2ccccc2)NC(=O)[C@H](CCN)NC1=O` [Compound 1665] ({CH2CO}-Y(Carboxymethyl)Y(Carboxymethyl)DWV[Bip][Cit][Orn][dL][Dab]FVTCA-NH2; thioether N-14) here?
**A.** The IC50 was 17 nM.

**Q.** For `CC(C)C[C@H]1NC(=O)[C@H](CCCN)NC(=O)[C@H](CCC(=O)O)NC(=O)[C@H](Cc2ccc(-c3ccccc3)cc2)NC(=O)[C@H](C(C)C)NC(=O)[C@H](Cc2c[nH]c3ccccc23)NC(=O)[C@H](CC(=O)O)NC(=O)[C@H](Cc2ccc(OCC(=O)O)cc2)NC(=O)[C@H](CN)NC(=O)CSC[C@@H](C(=O)N[C@@H](C)C(N)=O)NC(=O)[C@H]([C@@H](C)O)NC(=O)[C@H](C(C)C)NC(=O)[C@H](Cc2ccccc2)NC(=O)[C@H](CCN)NC1=O` [Compound 1666] ({CH2CO}-[Dap]Y(Carboxymethyl)DWV[Bip]E[Orn][dL][Dab]FVTCA-NH2; thioether N-14), which IC50 is on record?
**A.** Its IC50 is 17.3 nM.

**Q.** `CC(C)C[C@H]1NC(=O)[C@H](CCCN)NC(=O)[C@H](CCC(=O)O)NC(=O)[C@H](Cc2ccc(-c3ccccc3)cc2)NC(=O)[C@H](C(C)C)NC(=O)[C@H](Cc2c[nH]c3ccccc23)NC(=O)[C@H](CC(=O)O)NC(=O)[C@H](Cc2ccc(C(=O)O)cc2)NC(=O)[C@H](Cc2ccc(OCC(=O)O)cc2)NC(=O)CSC[C@@H](C(=O)N[C@@H](C)C(N)=O)NC(=O)[C@H]([C@@H](C)O)NC(=O)[C@H](C(C)C)NC(=O)[C@H](Cc2ccccc2)NC(=O)[C@H](CCN)NC1=O` [Compound 1667] ({CH2CO}-Y(Carboxymethyl)[Phe(4-COOH)]DWV[Bip]E[Orn][dL][Dab]FVTCA-NH2; thioether N-14) was tested. Which IC50 did it give?
**A.** The IC50 was 30 nM.
